Among the data in patent US8183262B2, “Pyridine derivatives as mGluR2 antagonists” (Hoffmann-La Roche Inc., priority 2007, dated 2012) are melting point values, retold here.

The term melting point denotes the temperature, or range, at which the solid turns liquid.

With `Cc1cc(-c2cc(C(F)(F)F)nc(-n3cnc(-c4cnc(N)nc4)c3)n2)ccc1C(F)(F)F` [Example 125, 5-{1-[4-(3-Methyl-4-trifluoromethyl-phenyl)-6-trifluoromethyl-pyrimidin-2-yl]-1H-imidazol-4-yl}-pyrimidin-2-ylamine], the melting point came to 297 °C. With `Cc1cc(-c2ccc(C(F)(F)F)cc2)nc(-c2nc(-c3cccc(S(N)(=O)=O)c3)no2)n1` [Example 126, 3-{5-[4-Methyl-6-(4-trifluoromethyl-phenyl)-pyrimidin-2-yl]-[1,2,4]oxadiazol-3-yl}-benzenesulfonamide], the melting point was 240.5 °C. The compound `Cc1cc(-c2ccc(C(F)(F)F)cc2)nc(-c2nc(-c3ccc(N)nc3)no2)n1` [Example 127, 5-{5-[4-Methyl-6-(4-trifluoromethyl-phenyl)-pyrimidin-2-yl]-[1,2,4]oxadiazol-3-yl}-pyridin-2-ylamine] registered a melting point of 216.5 °C.

In turn, `Cc1cc(-c2cc(C(F)(F)F)nc(-c3nc(-c4ccc(S(N)(=O)=O)cc4)no3)n2)ccc1C(F)(F)F` [Example 128, 4-{5-[4-(3-Methyl-4-trifluoromethyl-phenyl)-6-trifluoromethyl-pyrimidin-2-yl]-[1,2,4]oxadiazol-3-yl}-benzenesulfonamide] had a melting point of 261 °C. In the case of `Cc1cc(-c2cc(C(F)(F)F)nc(-c3nc(-c4cccc(S(N)(=O)=O)c4)no3)n2)ccc1C(F)(F)F` [Example 129, 3-{5-[4-(3-Methyl-4-trifluoromethyl-phenyl)-6-trifluoromethyl-pyrimidin-2-yl]-[1,2,4}oxadiazol-3-yl]-benzenesulfonamide] it was 223.5 °C; in that of `Cc1cc(-c2cc(C(F)(F)F)nc(-c3nc(-c4ccc(N)nc4)no3)n2)ccc1C(F)(F)F` [Example 130, 5-{5-[4-(3-Methyl-4-trifluoromethyl-phenyl)-6-trifluoromethyl-pyrimidin-2-yl]-[1,2,4]oxadiazol-3-yl}-pyridin-2-ylamine], 223 °C. Turning to `Cc1cc(-c2ccc(C(F)(F)F)c(C)c2)nc(-c2ccnc(-c3ccc(N)nc3)c2)n1` [Example 131, 4-[4-Methyl-6-(3-methyl-4-trifluoromethyl-phenyl)-pyrimidin-2-yl]-[2,3′]bipyridinyl-6′-ylamine], the melting point was determined as 188 °C. As for `Cc1cc(-c2ccc(C(F)(F)F)c(C)c2)nc(-c2cccc(-c3ccc(N)nc3)c2)n1` [Example 132, 5-{3-[4-Methyl-6-(3-methyl-4-trifluoromethyl-phenyl)-pyrimidin-2-yl]-phenyl}-pyridin-2-ylamine], the melting point was 153 °C. In turn, `Nc1ccc(-c2cccc(-c3nc(-c4ccc(C(F)(F)F)c(OCC(F)(F)F)c4)cc(C(F)(F)F)n3)c2)cn1` [Example 133, 5-(3-{4-[3-(2,2,2-Trifluoro-ethoxy)-4-trifluoromethyl-phenyl]-6-trifluoromethyl-pyrimidin-2-yl}-phenyl)-pyridin-2-ylamine] registered a melting point of 220 °C. Take `Nc1ccc(-c2cn(-c3nc(-c4ccc(C(F)(F)F)c(OCC(F)(F)F)c4)cc(C(F)(F)F)n3)cn2)cn1` [Example 134, 5-(1-{4-[3-(2,2,2-Trifluoro-ethoxy)-4-trifluoromethyl-phenyl]-6-trifluoromethyl-pyrimidin-2-yl}-1H-imidazol-4-yl)-pyridin-2-ylamine]: the melting point is 285 °C. `Nc1ccc(-c2cc(-c3nc(-c4ccc(C(F)(F)F)c(OCC(F)(F)F)c4)cc(C(F)(F)F)n3)ccn2)cn1` [Example 135, 4-{4-[3-(2,2,2-Trifluoro-ethoxy)-4-trifluoromethyl-phenyl]-6-trifluoromethyl-pyrimidin-2-yl}-[2,3′]bipyridinyl-6′-ylamine] had a melting point of 223 °C.

In the case of `Cc1cc(-c2ccc(Cl)cc2)nc(-c2nc(-c3ccc(S(N)(=O)=O)cc3)no2)n1` [Example 136, 4-{5-[4-(4-Chloro-phenyl)-6-methyl-pyrimidin-2-yl]-[1,2,4]oxadiazol-3-yl}-benzenesulfonamide], the melting point was found to be 297 °C. In turn, `Cc1cc(-c2ccc(Cl)cc2)nc(-c2nc(-c3ccc(N)nc3)no2)n1` [Example 137, 5-{5-[4-(4-Chloro-phenyl)-6-methyl-pyrimidin-2-yl]-[1,2,4]oxadiazol-3-yl}-pyridin-2-ylamine] yielded a melting point of 258 °C. In the case of `Nc1ncc(-c2cn(-c3nc(-c4cccc(C(F)(F)F)c4)cc(C(F)(F)F)n3)cn2)cn1` [Example 139, 5-{1-[4-Trifluoromethyl-6-(3-trifluoromethyl-phenyl)-pyrimidin-2-yl]-1H-imidazol-4-yl}-pyrimidin-2-ylamine] it was 223 °C; in that of `Nc1ccc(-c2cccc(-c3nc(-c4cccc(C(F)(F)F)c4)cc(C(F)(F)F)n3)c2)cn1` [Example 140, 5-{3-[4-Trifluoromethyl-6-(3-trifluoromethyl-phenyl)-pyrimidin-2-yl]-phenyl}-pyridin-2-ylamine], 162 °C. In the case of `Nc1ccc(-c2cc(-c3nc(-c4cccc(C(F)(F)F)c4)cc(C(F)(F)F)n3)ccn2)cn1` [Example 141, 4-[4-Trifluoromethyl-6-(3-trifluoromethyl-phenyl)-pyrimidin-2-yl]-[2,3′]bipyridinyl-6′-ylamine] it was 196 °C; in that of `Cc1nc(-c2ccc(N)nc2)cn1-c1nc(-c2ccc(C(F)(F)F)cc2)cc(C(F)(F)F)n1` [Example 142, 5-{2-Methyl-1-[4-trifluoromethyl-6-(4-trifluoromethyl-phenyl)-pyrimidin-2-yl]-1H-imidazol-4-yl}-pyridin-2-ylamine], 285 °C; in that of `Cc1nc(-c2cnc(N)nc2)cn1-c1nc(-c2ccc(C(F)(F)F)cc2)cc(C(F)(F)F)n1` [Example 143, 5-{2-Methyl-1-[4-trifluoromethyl-6-(4-trifluoromethyl-phenyl)-pyrimidin-2-yl]-1H-imidazol-4-yl}-pyrimidin-2-ylamine], 286.5 °C.

As for `Cc1cc(-c2ccc(Cl)c(Cl)c2)nc(-n2cnc(-c3cnc(N)nc3)c2)n1` [Example 144, 5-{1-[4-(3,4-Dichloro-phenyl)-6-methyl-pyrimidin-2-yl]-1H-imidazol-4-yl}-pyrimidin-2-ylamine], the melting point came out at 255.5 °C. The compound `Cc1cc(-c2ccc(Cl)c(Cl)c2)nc(-n2cnc(-c3ccc(N)nc3)c2)n1` [Example 145, 5-{1-[4-(3,4-Dichloro-phenyl)-6-methyl-pyrimidin-2-yl]-1H-imidazol-4-yl}-pyridin-2-ylamine] came in with a melting point of 213 °C.

`Cc1cc(-c2ccc(Cl)c(Cl)c2)nc(-c2ccnc(-c3ccc(N)nc3)c2)n1` [Example 146, 4-[4-(3,4-Dichloro-phenyl)-6-methyl-pyrimidin-2-yl]-[2,3′]bipyridinyl-6′-ylamine] gave a melting point of 205 °C. `Cc1cc(-c2ccc(Cl)c(Cl)c2)nc(-c2cccc(-c3ccc(N)nc3)c2)n1` [Example 147, 5-{3-[4-(3,4-Dichloro-phenyl)-6-methyl-pyrimidin-2-yl]-phenyl}-pyridin-2-ylamine] had a melting point of 170.5 °C.

`FC(F)(F)c1ccc(-c2cc(C(F)(F)F)nc(-n3cnc(-c4cccnc4)n3)n2)cc1` [Example 149, 2-(3-Pyridin-3-yl-[1,2,4]triazol-1-yl)-4-trifluoromethyl-6-(4-trifluoromethyl-phenyl)-pyrimidine] displayed a melting point of 190 °C.

For the compound `Cc1cc(-c2ccc(C(F)(F)F)cc2)nc(-n2cc(-c3ccc(N)nc3)nc2C)n1` [Example 150, 5-{2-Methyl-1-[4-methyl-6-(4-trifluoromethyl-phenyl)-pyrimidin-2-yl]-1H-imidazol-4-yl}-pyridin-2-ylamine], the melting point turned out to be 227.5 °C. The figure for `Cc1cc(-c2ccc(C(F)(F)F)cc2)nc(-n2cnc(-c3ccc(N)nc3)n2)n1` [Example 151, 5-{1-[4-Methyl-6-(4-trifluoromethyl-phenyl)-pyrimidin-2-yl]-1H-[1,2,4]triazol-3-yl}-pyridin-2-ylamine] is 244 °C; for `CC(C)c1cc(-c2ccc(C(F)(F)F)cc2)nc(-n2cnc(-c3ccc(N)nc3)c2)n1` [Example 152, 5-{1-[4-Isopropyl-6-(4-trifluoromethyl-phenyl)-pyrimidin-2-yl]-1H-imidazol-4-yl}-pyridin-2-ylamine] it is 274.5 °C; for `CC(C)c1cc(-c2ccc(C(F)(F)F)cc2)nc(-n2cnc(-c3cnc(N)nc3)c2)n1` [Example 153, 5-{1-[4-Isopropyl-6-(4-trifluoromethyl-phenyl)-pyrimidin-2-yl]-1H-imidazol-4-yl}-pyrimidin-2-ylamine] it is 277 °C. Turning to `Cc1c(-c2ccc(N)nc2)ncn1-c1nc(-c2ccc(C(F)(F)F)cc2)cc(C(F)(F)F)n1` [Example 154, 5-{5-Methyl-1-[4-trifluoromethyl-6-(4-trifluoromethyl-phenyl)-pyrimidin-2-yl]-1H-imidazol-4-yl}-pyridin-2-ylamine], the melting point turned out to be 252 °C. Turning to `CC(C)(C)NS(=O)(=O)c1cccc(-c2cc(-c3nc(-c4ccc(C(F)(F)F)cc4)cc(C(F)(F)F)n3)ccn2)c1` [Example 156, N-tert-Butyl-3-{4-[4-trifluoromethyl-6-(4-trifluoromethyl-phenyl)-pyrimidin-2-yl]-pyridin-2-yl}-benzenesulfonamide], the melting point came out at 211 °C. Turning to `NS(=O)(=O)c1cccc(-c2cccc(-c3nc(-c4ccc(C(F)(F)F)cc4)cc(C(F)(F)F)n3)c2)c1` [Example 157, 3′-[4-Trifluoromethyl-6-(4-trifluoromethyl-phenyl)-pyrimidin-2-yl]-biphenyl-3-sulfonic acid amide], the melting point was determined as 267 °C. In the case of `NS(=O)(=O)c1cccc(-c2cc(-c3nc(-c4ccc(C(F)(F)F)cc4)cc(C(F)(F)F)n3)ccn2)c1` [Example 158, 3-{4-[4-Trifluoromethyl-6-(4-trifluoromethyl-phenyl)-pyrimidin-2-yl]-pyridin-2-yl}-benzenesulfonamide] it was 237 °C. In the case of `NS(=O)(=O)c1ccc(-c2cn(-c3nc(-c4ccc(C(F)(F)F)cc4)cc(C(F)(F)F)n3)cn2)cc1` [Example 159, 4-{1-[4-Trifluoromethyl-6-(4-trifluoromethyl-phenyl)-pyrimidin-2-yl]-1H-imidazol-4-yl}-benzenesulfonamide], the melting point came out at 292 °C.
